According to the RepoRT retention time repository:

Assay: HILIC, Waters Atlantis Premier BEH Z-HILIC, 100 × 2.1 mm, 1.7 µm, 40 °C, 0.15 mL/min, estimated dead time 1.5 min; A: water + 20 mM ammonium carbonate + 5 µM medronic acid; B: 10% water + 90% acetonitrile + 2 mM ammonium carbonate + 0.5 µM medronic acid; gradient (min/%B) 0/100 18/55 18.1/20 21.5/20 22/100 23.5/100 25.5/100
Conditions: stereoisomer not certain

Row | Compound | LC retention time
1 | NC(=O)CCC(N)C(=O)O (stereo not given) [Glutamine] | 10.4 min
2 | O=C(O)CC(O)(CC(=O)O)C(=O)O [Citric acid] | 14.7 min
3 | NC(=O)C1=CN(C2OC(COP(=O)(O)OP(=O)(O)OCC3OC(n4cnc5c(N)ncnc54)C(OP(=O)(O)O)C3O)C(O)C2O)C=CC1 (stereo not given) [NADPH] | 14.7 min
4 | O=C(O)CCCCC1SCC2NC(=O)NC21 (stereo not given) [Biotin] | 4.6 min
5 | NC(CCC(=O)O)C(=O)O (stereo not given) [Glutamic acid] | 9.29 min
6 | O=P(O)(O)OCC1OC(O)C(O)C(O)C1O (stereo not given) [Glucose-6-phosphate] | 12.6 min
7 | Nc1ncnc2c1ncn2C1OC(COP(=O)(O)OP(=O)(O)OP(=O)(O)O)C(O)C1O (stereo not given) [ATP] | 14.3 min
8 | CCC(C)C(N)C(=O)O (stereo not given) [Isoleucine] | 6.3 min
9 | O=P(O)(O)OCC(O)CO (stereo not given) [Glycerol-3-phosphate] | 9.84 min
10 | CC(C)(COP(=O)(O)OP(=O)(O)OCC1OC(n2cnc3c(N)ncnc32)C(O)C1OP(=O)(O)O)C(O)C(=O)NCCC(=O)NCCS (stereo not given) [CoenzymeA] | 11.9 min
11 | O=C1CC(C(=O)O)NC(=O)N1 (stereo not given) [dihydroorotic acid] | 4.02 min
12 | Cc1cc2nc3c(=O)[nH]c(=O)nc-3n(CC(O)C(O)C(O)COP(=O)(O)OP(=O)(O)OCC3OC(n4cnc5c(N)ncnc54)C(O)C3O)c2cc1C (stereo not given) [FAD] | 7.27 min
13 | O=C(O)CC(C(=O)O)C(O)C(=O)O (stereo not given) [Isocitric acid] | 14.5 min
14 | CCC(=O)OC(CC(=O)[O-])C[N+](C)(C)C (stereo not given) [carnitine-C3] | 6.33 min
15 | CC(O)C(=O)O (stereo not given) [Lactic Acid] | 3.36 min
16 | Nc1nc2c(ncn2C2OC(COP(=O)(O)OP(=O)(O)OP(=O)(O)O)C(O)C2O)c(=O)[nH]1 (stereo not given) [GTP] | 17.1 min
17 | Nc1ncnc2c1ncn2C1OC(CO)C(O)C1O (stereo not given) [Adenosine] | 3.65 min
18 | Nc1ncnc2c1ncn2C1OC(COP(=O)(O)O)C(O)C1O (stereo not given) [AMP] | 8.82 min

Row | Compound | LC retention time
19 | C=C(OP(=O)(O)O)C(=O)O [PEP] | 14.4 min
20 | O=C(O)C(CO)OP(=O)(O)O (stereo not given) [Phosphoglyceric acid A] | 13.3 min
21 | O=C(O)CCC(O)C(=O)O (stereo not given) [2-hydroxy glutaric acid] | 9.58 min
22 | CC(C)CC(N)C(=O)O (stereo not given) [Leucine] | 6.08 min
23 | O=C(O)CCC(=O)O [Succinic Acid] | 9.39 min
24 | OCC1OC(O)C(O)C(O)C1O (stereo not given) [Hexose] | 6.94 min
25 | O=C(CO)C(O)C(O)C(O)COP(=O)(O)O (stereo not given) [Fructose 6-phosphate] | 12 min
26 | CC(=O)NC1C(OP(=O)(O)OP(=O)(O)OCC2OC(n3ccc(=O)[nH]c3=O)C(O)C2O)OC(CO)C(O)C1O (stereo not given) [UDP-GlcNAc] | 9.63 min
27 | O=C(O)CCC(=O)C(=O)O [2-Oxoglutaric acid] | 8.62 min
28 | NC(=O)C1=CN(C2OC(COP(=O)(O)OP(=O)(O)OCC3OC(n4cnc5c(N)ncnc54)C(O)C3O)C(O)C2O)C=CC1 (stereo not given) [NADH] | 7.99 min
29 | O=C(CO)COP(=O)(O)O [Triose phosphate] | 9.84 min
30 | CC(=O)SCCNC(=O)CCNC(=O)C(O)C(C)(C)COP(=O)(O)OP(=O)(O)OCC1OC(n2cnc3c(N)ncnc32)C(O)C1OP(=O)(O)O (stereo not given) [Acetyl-CoA] | 9.49 min
31 | C[N+](C)(C)CC(O)CC(=O)[O-] (stereo not given) [Carnitine] | 9.95 min
32 | NC(=O)c1ccc[n+](C2OC(COP(=O)(O)OP(=O)(O)OCC3OC(n4cnc5c(N)ncnc54)C(OP(=O)(O)O)C3O)C(O)C2O)c1 (stereo not given) [NADP] | 13.8 min
33 | NC(=O)c1ccc[n+](C2OC(COP(=O)(O)OP(=O)(O)OCC3OC(n4cnc5c(N)ncnc54)C(O)C3O)C(O)C2O)c1 (stereo not given) [NAD] | 10.5 min
34 | Nc1ncnc2c1ncn2C1OC(COP(=O)(O)OP(=O)(O)O)C(O)C1O (stereo not given) [ADP] | 11.9 min
35 | O=P(O)(O)OCC1OC(O)(COP(=O)(O)O)C(O)C1O (stereo not given) [Fructose-1,6-bisphosphate] | 16.6 min
